In ChEMBL document CHEMBL1144215, “N-Propylnoraporphin-11-O-yl carboxylic esters as potent dopamine D(2) and serotonin 5-HT(1A) receptor dual ligands” (Bioorg Med Chem, 2008):

Target: T1, D(2) dopamine receptor (Homo sapiens, UniProt P14416)
Assay: Displacement of [3H]Spiperone from human dopamine D2 receptor expressed in HEK293 cells

T1 sequence (P14416 whole entry): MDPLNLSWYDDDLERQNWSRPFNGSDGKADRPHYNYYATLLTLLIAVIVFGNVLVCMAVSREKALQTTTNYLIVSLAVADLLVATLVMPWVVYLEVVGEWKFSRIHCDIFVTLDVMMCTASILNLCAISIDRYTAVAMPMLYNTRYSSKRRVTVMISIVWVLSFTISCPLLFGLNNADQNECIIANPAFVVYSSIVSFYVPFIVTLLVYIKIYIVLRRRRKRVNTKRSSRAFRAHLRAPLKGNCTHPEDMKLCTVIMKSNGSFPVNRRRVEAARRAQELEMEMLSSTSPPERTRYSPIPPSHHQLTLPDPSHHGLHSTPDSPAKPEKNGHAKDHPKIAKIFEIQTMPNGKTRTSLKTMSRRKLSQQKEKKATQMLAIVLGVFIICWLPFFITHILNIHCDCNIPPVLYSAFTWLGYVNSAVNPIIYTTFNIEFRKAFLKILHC

SMILES	Ki [nM]
CCCCC(=O)Oc1cccc2c1-c1cccc3c1[C@@H](C2)N(CCC)CC3	> 10000
CCCN1CCc2cccc3c2[C@H]1Cc1cccc(OC(=O)CNC(=O)OCc2ccccc2)c1-3	> 10000
CCCC(=O)Oc1cccc2c1-c1cccc3c1[C@@H](C2)N(CCC)CC3	> 10000
CCCCCC(=O)Oc1cccc2c1-c1cccc3c1[C@@H](C2)N(CCC)CC3	> 10000

Target: T1, D(2) dopamine receptor
Assay: Displacement of […] from human dopamine D2 receptor expressed in HEK293 cells
Type: cell-based

Ki [nM]	SMILES
> 10000	CCCN1CCc2cccc3c2[C@H]1Cc1cccc(OC(=O)CCCC(=O)Oc2cccc4c2-c2cccc5c2[C@@H](C4)N(CCC)CC5)c1-3

Target: Dopamine D1 receptor
Assay: Displacement of [3H]SCH23390 from rat dopamine D1 receptor expressed in HEK293 cells

SMILES	Ki [nM]
CCCN1CCc2cccc3c2[C@H]1Cc1cccc(OC(=O)CNC(=O)OCc2ccccc2)c1-3	> 10000
CCCC(=O)Oc1cccc2c1-c1cccc3c1[C@@H](C2)N(CCC)CC3	> 10000
CCCCCC(=O)Oc1cccc2c1-c1cccc3c1[C@@H](C2)N(CCC)CC3	> 10000

Target: 5-hydroxytryptamine receptor 2A (Homo sapiens, UniProt P28223)
Assay: Displacement of [3H]Ketanserin from human 5HT2A receptor expressed in HEK293 cells

Chain of 5-hydroxytryptamine receptor 2A (P28223 whole entry): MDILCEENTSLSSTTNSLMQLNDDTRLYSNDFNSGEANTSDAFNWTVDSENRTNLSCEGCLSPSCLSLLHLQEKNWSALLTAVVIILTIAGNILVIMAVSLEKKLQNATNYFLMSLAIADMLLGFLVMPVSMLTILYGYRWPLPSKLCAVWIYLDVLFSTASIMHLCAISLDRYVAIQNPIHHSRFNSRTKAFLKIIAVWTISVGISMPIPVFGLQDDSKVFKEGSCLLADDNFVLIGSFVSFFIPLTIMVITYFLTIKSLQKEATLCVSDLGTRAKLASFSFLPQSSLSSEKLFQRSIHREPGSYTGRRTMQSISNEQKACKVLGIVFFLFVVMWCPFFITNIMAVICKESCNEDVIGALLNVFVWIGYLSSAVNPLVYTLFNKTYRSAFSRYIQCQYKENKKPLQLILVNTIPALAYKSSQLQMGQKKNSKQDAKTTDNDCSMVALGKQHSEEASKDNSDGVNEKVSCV

SMILES	Ki [nM]
CCCN1CCc2cccc3c2[C@H]1Cc1cccc(OC(C)=O)c1-3	72
CCCN1CCc2cccc3c2[C@H]1Cc1cccc(O)c1-3	114
CCCCC(=O)Oc1cccc2c1-c1cccc3c1[C@@H](C2)N(CCC)CC3	92
CCCN1CCc2cccc3c2[C@H]1Cc1cccc(OC(=O)CNC(=O)OCc2ccccc2)c1-3	> 10000
CCCC(=O)Oc1cccc2c1-c1cccc3c1[C@@H](C2)N(CCC)CC3	56
CCCN1CCc2cccc3c2[C@H]1Cc1cccc(OC(=O)CC)c1-3	109
CCCCCC(=O)Oc1cccc2c1-c1cccc3c1[C@@H](C2)N(CCC)CC3	109
CCCCCCC(=O)Oc1cccc2c1-c1cccc3c1[C@@H](C2)N(CCC)CC3	95
